Like-named read-outs stand apart in the source and are kept apart here.
Experiments:
human CCR2B [1] = molecular target: T1, human CCR2B (Homo sapiens (Human), UniProt P41597); experiment: Inhibition of [125I]-labeled MCP-1 binding to hCCR2B (radioligand binding in CHO cells)
Description: (§1) CHO cells expressing human CCR2B were generated as follows. cDNA for human CCR2B (cloned from human blood) was cloned into plasmid pcDNA3.1 (from Invitrogen). The resulting plasmids were separately transfected into CHO cells expressing human Gα16 (from Molecular Devices). […] CHO cells expressing rat CCR2 were generated as follows. cDNA for rat CCR2 (cloned from rat macrophage) was cloned into plasmid pEF-flag (from Chinese Academy of Science). The resulting plasmids were transfected into CHO cells expressing human Gα16 (from […]).
Inhibition of [^125I]-Labeled MCP-1 Binding to hCCR2B
Radioligand binding assays were performed in CHO cells expressing human CCR2B and Gα16 coupling protein. All compounds were dissolved in DMSO and assays run at a final DMSO concentration of 0.5% (v/v). [^125I]-labeled human MCP-1 was purchased from PerkinElmer. Unlabelled human MCP-1 was purchased from PeproTech.
Compounds were serially diluted in DMSO before diluting into assay buffer (25 mM HEPES, pH 7.4, 5 mM MgCl2, 1 mM CaCl2, 0.5% BSA) with cryo preserved CHO cells expressing human CCR2B and the Gα16 coupling protein (30×10^3/well) and [^125I]-MCP-1 (50 pM). The reaction was incubated at room temperature for 90 minutes before transferring to GF/C filter membrane (PerkinElmer) pre-treated with 0.3% polyethyleneimine for 2 hours at 4° C. The filter membrane was washed six times with ice cold wash buffer (25 mM HEPES, pH 7.4, 5 mM MgCl2, 1 mM CaCl2, 500 mM NaCl, 0.01% (m/v) azide), dried, and sealed in a RLB sample bag (Agilent Technologies) before adding 5.0 mL Microscint 20 to each bag. Membrane was counted on Microbeta counter where background binding was determined by the presence of 100 nM MCP-1 and control total binding was determined by addition of DMSO in place of the test compound. The radioactivity values (cpm) were used to calculate the percent inhibition at a given compound concentration and the data fit to a sigmoidal curve in a semi-log plot to determine IC50 values. The corresponding Ki value is calculated as follows:
Ki=IC50/(1+[radioligand]/Kd), where [radioligand] is the concentration of the label and Kd (dissociation constant) is determined in saturation experiment with different concentrations of labeled MCP-1.

rat CCR2 = rat CCR2 (Rattus norvegicus (Rat), UniProt O55193); experiment: Inhibition of native agonist (rat MCP-1)-induced intracellular calcium release, calcium flux assay in CHO cells expressing rat CCR2 and Gα16; format: cell-based; details: read-out: rCCR2 Kb
rat CCR2, sequence (O55193 whole entry): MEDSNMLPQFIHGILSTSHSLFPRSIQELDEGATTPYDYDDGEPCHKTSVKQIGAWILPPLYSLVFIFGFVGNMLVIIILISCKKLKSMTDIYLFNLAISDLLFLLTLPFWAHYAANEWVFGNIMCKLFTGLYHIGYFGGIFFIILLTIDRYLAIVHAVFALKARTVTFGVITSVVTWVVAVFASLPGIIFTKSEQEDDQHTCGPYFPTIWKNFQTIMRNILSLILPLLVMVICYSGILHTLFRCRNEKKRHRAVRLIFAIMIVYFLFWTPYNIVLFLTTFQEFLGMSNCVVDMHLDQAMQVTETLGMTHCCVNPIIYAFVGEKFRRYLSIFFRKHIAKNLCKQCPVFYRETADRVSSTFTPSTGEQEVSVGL
Description: as §1
(§2) Inhibition of Native Agonist-Induced Intracellular Calcium Release in Cells Expressing hCCR2B or rCCR2
(§3) Calcium flux assays were performed in CHO cells expressing human CCR2B and Gα16 coupling protein, or rat CCR2 and Gα16 coupling protein. All compounds were dissolved in DMSO and assays run at a final DMSO concentration of 0.25% (v/v). Human MCP-1 was purchased from PeproTech and used at a final assay concentration of 2 nM, while rat MCP-1 was purchased from R&D and used at a final assay concentration of 4 nM. Assays with cells expressing human CCR2B were performed with human MCP-1, while assays with cells expressing rat CCR2 were performed with rat MCP-1.
(§4) Briefly, cells were cultured overnight in a microtiter plate at 8000 per well. The next day, the resultant adherent cells were incubated in assay buffer (20 mM HEPES, pH 7.4, 0.1% bovine serum albumin, and 2.5 mM probenocid in Hank's Buffered Saline Solution) containing Calcium 4 dye (Molecular Probes) at 37° C. for 60 minutes. Calcium flux assays were performed on a FLIPR^Tetra instrument (Molecular Devices) by adding compound to the cells followed by addition of native agonist and measuring the change in fluorescence as a function of time. Maximal and minimal values for fluorescence were determined using native agonist (2 nM MCP-1) for human or rat CCR2, or buffer addition, respectively. Fluorescence values were used to calculate the percent inhibition at a given compound concentration and the data fit to a sigmoidal curve in a semi-log plot to determine IC50 values. The Kb value is calculated as Kb=IC50/(1+[agonist]/EC50), where [agonist] is the concentration of agonist used and EC50 is the agonist potency determined in the previous experiments. Mean Kb values and IC50 of the compounds assayed are reported in Table 2 and Table 3 respectively.

human CCR2B [2] = molecular target: T1, human CCR2B; experiment: Inhibition of native agonist (human MCP-1)-induced intracellular calcium release, calcium flux assay in CHO cells expressing human CCR2B and Gα16; format: cell-based; details: for IC50: read-out: hCCR2B IC50; for Kb: read-out: hCCR2B Kb
Description: as §1, §2, §3, §4

[3] = mean Ki, [125I]-MCP-1 50 pM, CHO cells expressing human CCR2B and Gα16

T1 sequence (P41597 other isoform, or with tags, fused parts or gaps): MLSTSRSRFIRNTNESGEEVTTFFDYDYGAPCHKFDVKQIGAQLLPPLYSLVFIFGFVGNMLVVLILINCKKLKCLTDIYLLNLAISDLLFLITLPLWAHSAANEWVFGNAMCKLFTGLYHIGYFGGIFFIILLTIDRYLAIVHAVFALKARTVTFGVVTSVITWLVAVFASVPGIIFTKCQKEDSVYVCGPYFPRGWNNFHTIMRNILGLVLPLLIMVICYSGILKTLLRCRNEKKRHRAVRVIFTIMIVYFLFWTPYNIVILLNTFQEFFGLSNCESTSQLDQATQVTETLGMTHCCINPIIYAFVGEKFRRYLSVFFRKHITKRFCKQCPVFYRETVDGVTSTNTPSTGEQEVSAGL

| Compound | Ki (human CCR2B [1]) [nM] | Kb (rat CCR2) [nM] | IC50 (human CCR2B [2]; calcium flux, human MCP-1 2 nM) [nM] | Kb (human CCR2B [2]) [nM] | Ki (human CCR2B [1]; [3]) [nM] | IC50 (human CCR2B [2]) [nM] |
| --- | --- | --- | --- | --- | --- | --- |
| CO[C@@H]1COCC[C@@H]1N[C@@H]1C[C@H]2CCC[C@@]2(C(=O)N2C[C@@H]3C[C@H]2CN3c2ccc(C#N)c(C(F)(F)F)c2)C1 (racemic) [Example 39, 1,5-anhydro-3-{[(2R,3aR,6aR)-3a-({(1S,4S)-5-[4-cyano-3-(trifluoromethyl)phenyl]-2,5-diazabicyclo[2.2.1]hept-2-yl}carbonyl)octahydropentalen-2-yl]amino}-2,3-dideoxy-4-O-methyl-D-erythro-pentitol] | 66 | 3 | 55.3 | 14 | – | – |
| CO[C@@H]1COCC[C@H]1N[C@@H]1C[C@H]2CCC[C@@]2(C(=O)N2C[C@@H]3C[C@H]2CN3c2cc(C(F)(F)F)ccn2)C1 [Example 1, 1,5-anhydro-2,3-dideoxy-4-O-methyl-3-{[(2R,3aR,6aR)-3a-({(1S,4S)-5-[4-(trifluoromethyl)pyridin-2-yl]-2,5-diazabicyclo[2.2.1]hept-2-yl}carbonyl)octahydropentalen-2-yl]amino}-D-threo-pentitol] | – | 23 | 54.9 | 14 | 32 | – |
| CO[C@@H]1COCC[C@@H]1N[C@@H]1C[C@H]2CCC[C@@]2(C(=O)N2C[C@@H]3C[C@H]2CN3c2cc(C(F)(F)F)ccn2)C1 [Example 2, 1,5-anhydro-2,3-dideoxy-4-O-methyl-3-{[(2R,3aR,6aR)-3a-({(1S,4S)-5-[4-(trifluoromethyl)pyridin-2-yl]-2,5-diazabicyclo[2.2.1]hept-2-yl}carbonyl)octahydropentalen-2-yl]amino}-D-erythro-pentitol] | – | 12 | 76.7 | 19 | 60 | – |
| CO[C@@H]1COCC[C@@H]1N(C)[C@@H]1C[C@H]2CCC[C@@]2(C(=O)N2C[C@@H]3C[C@H]2CN3c2cc(C(F)(F)F)ccn2)C1 [Example 7, 1,5-anhydro-2,3-dideoxy-4-O-methyl-3-{methyl[(2R,3aR,6aR)-3a-({(1S,4S)-5-[4-(trifluoromethyl)pyridin-2-yl]-2,5-diazabicyclo[2.2.1]hept-2-yl}carbonyl)octahydropentalen-2-yl]amino}-D-erythro-pentitol] | – | 10 | 65.7 | 16 | 30 | – |
| CO[C@@H]1COCC[C@@H]1N[C@@H]1C[C@H]2CCC[C@@]2(C(=O)N2C[C@@H]3C[C@H]2CN3c2ccc(F)c(C(F)(F)F)c2)C1 [Example 15, 1,5-anhydro-2,3-dideoxy-3-{[(2R,3aR,6aR)-3a-({(1S,4S)-5-[4-fluoro-3-(trifluoromethyl)phenyl]-2,5-diazabicyclo[2.2.1]hept-2-yl}carbonyl)octahydropentalen-2-yl]amino}-4-O-methyl-D-erythro-pentitol] | – | 3 | – | 9 | 29 | 34.7 |
| CO[C@@H]1COCC[C@@H]1N[C@@H]1C[C@H]2CCC[C@@]2(C(=O)N2C[C@@H]3C[C@H]2CN3c2cc(C(F)(F)F)ccc2C)C1 [Example 16, 1,5-anhydro-2,3-dideoxy-4-O-methyl-3-{[(2R,3aR,6aR)-3a-({(1S,4S)-5-[2-methyl-5-(trifluoromethyl)phenyl]-2,5-diazabicyclo[2.2.1]hept-2-yl}carbonyl)octahydropentalen-2-yl]amino}-D-erythro-pentitol] | – | 7 | – | 26 | 199 | 106 |
| CO[C@@H]1COCC[C@@H]1N[C@@H]1C[C@H]2CCC[C@@]2(C(=O)N2C[C@@H]3C[C@H]2CN3c2cccc(C(F)(F)F)c2)C1 [Example 18, 1,5-anhydro-2,3-dideoxy-4-O-methyl-3-{[(2R,3aR,6aR)-3a-({(1S,4S)-5-[3-(trifluoromethyl)phenyl]-2,5-diazabicyclo[2.2.1]hept-2-yl}carbonyl)octahydropentalen-2-yl]amino}-D-erythro-pentitol] | – | 6 | 76.4 | 19 | 207 | – |
